Measured values published in publication PMC10147923, “Pain-causing stinging nettle toxins target TMEM233 to modulate NaV1.7 function” (Nature Communications, 2023).
Where “and” joins values, the source holds several entries; their conditions need not be identical. Identical values can stand only once. Positions of bridges follow the written chain, without caps; N, C: chain ends. Residues, ends and D or L forms follow the SMILES beside them.

What was measured:
[1] = system: wild-type C57BL/6 mice; assay: Nocifensive behaviors after intraplantar injection, wild-type mice; assay type: in vivo, mouse; conditions: wt
Procedure: Nocifensive responses to intraplantar administration of ExTxA (5–10 nM) were assessed as previously described. In brief, ExTxA was diluted in sterile saline/0.1% BSA and administered by an intraplantar injection (40 μL) into a single hind paw of Tmem233^Cre/Cre, NaV1.7^Advill and wild-type littermate controls. Pain behaviors, consisting of paw licks or flinches, were counted from video recordings by a blinded investigator for up to 60 min following injection.

[2] = system: hNaV1.3; assay: Persistent current, HEK293-hNaV1.3/β1; assay type: cell-based, human; conditions: ExTxA 1 µM
[3] = system: hNaV1.6; assay: Persistent current, HEK293-hNaV1.6/β1; assay type: cell-based, human; conditions: ExTxA 1 µM; individual cells
[4] = system: total NaV current in wild-type DRG neurons; assay: Persistent NaV current, wild-type littermate DRG neurons; assay type: cell-based, mouse; conditions: ExTxA 30 nM; wildtype; mean ± SEM, n = 6
[5] = system: DRG neurons from wild-type C57BL/6 mice; assay: Calcium imaging, wild-type DRG neurons; assay type: cell-based, mouse
Procedure: (§1) DRG from all spinal levels were isolated from male and female mice (wild-type C57BL/6 J, Tmem233^Cre/Cre, NaV1.8^Cre/Cre, NaV1.9^−/− or littermate controls) as previously described[36],[38],[39]. For Ca^2+ imaging experiments, DRG neurons were dissociated following incubation with 1% collagenase type IV (Worthington, New Jersey, USA) for 1.5 h (37 °C, 5% CO2) and 2.5% trypsin (Sigma-Aldrich, Montana, USA) for 15 min and resuspended in Dulbecco’s modified Eagle’s medium (DMEM) (Sigma-Aldrich, New South Wales, Australia) supplemented with 10% fetal bovine serum (FBS) (Thermofisher, Massachusetts, USA) and penicillin/streptomycin (Thermofisher, Massachusetts, USA). Following plating in 96-well poly-D-lysine–coated culture plates, isolated neurons were incubated for 24 h at 37 °C with 5% CO2 prior to imaging.
(§2) Dissociated DRG neurons from Tmem233^Cre/Cre and C57BL/6 mice were plated on PDL-coated 96-well black-walled imaging plates and loaded with Fluo-4 AM calcium indicator (5 μM) (Invitrogen, Massachusetts, USA) for 1 h in culture medium. Cells were washed with Hanks’ balanced salt solution containing 20 mM HEPES and then transferred to the recording chamber of a Nikon Ti-E Deconvolution inverted microscope equipped with a Lumencor Spectra LED light source. Fluorescence images (excitation, 485 nm; emission, 521 nm) were acquired at 1 frame per second using a ×20 objective. Following the recording of baseline fluorescence (20 s), cells were consecutively exposed to buffer control (0.1% BSA, t = 30 s), ExTxA (10 nM, t = 60 s), and 30 mM KCl (30 mM, t = 210 s). […] Cells responding to buffer control were excluded from analysis.

[6] = system: DRG neurons from Tmem233Cre/Cre knockout mice; assay: Calcium imaging, Tmem233Cre/Cre DRG neurons; assay type: cell-based, mouse
Procedure: as §1, §2

[7] = molecular target: NaV1.7/TMEM233 (Homo sapiens, UniProt B4DJY2+Q15858); assay: Ramp currents with ExTxA, HEK293 NaV1.7/TMEM233; assay type: cell-based
[8] = system: hNaV1.7/TMEM233; assay: Persistent current, Xenopus oocytes hNaV1.7/TMEM233; assay type: cell-based, human
Procedure: Human NaV1.7 and TMEM233 genes cloned into pcDNA3.1 plasmid were linearized with NotI restriction enzyme and used as template for cRNA synthesis using T7 polymerase (mMessage mMachine Kit; Life Technologies). Stage V/VI oocytes were injected with 5–20 ng total RNA, then incubated at 17 °C for 1–3 days in 50% Leibovitz’s L-15 medium (Gibco), supplemented with 25 µg/mL gentamicin, 25 µg/mL streptomycin, and 2.5% fetal horse serum. Two-electrode voltage clamp (Axoclamp 900 A amplifier; Axon Instruments) were performed at room temperature in ND96 solution (in mM: 96 NaCl, 2 KCl, 1 MgCl2, 1.8 CaCl2, 5 HEPES; pH 7.4 with NaOH) with a ∼40 μL recording chamber. In experiments where ExTxA was added, solutions were supplemented with 0.05% fatty-acid free bovine serum albumin. Borosilicate glass microelectrodes had resistances of 0.2–0.8 MΩ when backfilled with 3 M KCl. Data were digitized at 20 kHz and filtered at 2 kHz using pCLAMP 11 software (Digidata 1550B; Axon Instruments).
ExTxA activity was assayed at 1 µM, analyzing the current from a 50 ms step to −10 mV every 10 s, from a holding volage of −80 mV. For all other voltage protocols, oocytes were held at −90 mV. Activation curves were obtained by measuring peak currents during steps from −100 mV to +60 mV in +10 mV increments applied every 10 s, with G/Gmax plot between −80 mV and +10 mV. Steady-state inactivation curves plot the peak current at a test pulse of −10 mV, after a 200 ms pre-pulse from −100 mV to +40 mV in +10 mV increments applied every 10 s. Slow inactivation curves plot the peak current at a test pulse of −10 mV, after a 10 s pre-pulse from −110 mV to −10 mV in +10 mV increments applied every 20 s. To determine recovery from inactivation, oocytes were first stepped to −10 mV, then rested at −90 mV for a variable time interval indicated in the graph, then a second −10 mV depolarization applied to determine the fraction of channls recovered. This protocol was applied every 13 s (time between each initial −10 mV step).

[9] = system: TE-671 cells

Structure (SMILES): CC[C@H](C)[C@@H]1NC(=O)[C@H](CCCNC(=N)N)NC(=O)[C@H](Cc2ccccc2)NC(=O)[C@H](CC(C)C)NC(=O)[C@H](CO)NC(=O)[C@@H]2CSSC[C@@H]3NC(=O)[C@H]([C@@H](C)O)NC(=O)[C@H](CSSC[C@H](NC(=O)[C@H](CCCNC(=N)N)NC(=O)[C@@H]4CCCN4C(=O)[C@@H](N)CC(C)C)C(=O)N[C@@H](CC(=O)O)C(=O)N[C@@H](CO)C(=O)N4CCC[C@H]4C(=O)N[C@@H](Cc4ccccc4)C(=O)N2)NC(=O)[C@H](CCCCN)NC(=O)[C@H](CC(=O)O)NC(=O)CNC(=O)[C@H](CSSC[C@@H](C(=O)N[C@H](C(=O)N2CCC[C@H]2C(=O)N[C@@H](CC(=O)O)C(=O)N[C@H](C(=O)O)C(C)C)C(C)C)NC(=O)[C@H](CC(C)C)NC(=O)CNC(=O)[C@H](Cc2ccccc2)NC(=O)[C@H]([C@@H](C)CC)NC(=O)[C@@H]2CCCN2C(=O)[C@H](CC(C)C)NC(=O)[C@@H]2CCCN2C(=O)[C@H](C(C)C)NC3=O)NC(=O)[C@H](CC(C)C)NC(=O)CNC1=O [ExTxA, excelsatoxin A] (H-LPRCDSPFCSLFRIGLCGDKCTCVPLPIFGLCVPDV-OH; disulfide 4-21, 9-23, 17-32)
- cumulative flinches (60 min) ([1]; i.pl. ExTxA 10 nM, 40 μL, mean, n = 4): 319.3 ± 21.9 and 319.3
- cumulative flinches (60 min) ([1]; i.pl. ExTxA 10 nM, individual animals): 318 and 332 and 366 and 261
- ExTxA-induced pain behaviours (cumulative paw licks and flinches over 40 min) ([1]; i.pl. ExTxA 10 nM, mean ± SEM, n = 17): 234.2 ± 27.7
- nocifensive behaviors, 0-40 min combined (Fig. 3g) ([1]; 0-40 min, individual animals, one line each (n = 17)): 186 and 191 and 216 and 226 and 100 and 220 and 228 and 281 and 150 and 168 and 177 and 96 and 381 and 537 and 153
- nocifensive behaviors, 0-40 min combined, mean (Fig. 3g) ([1]; 0-40 min, mean, n = 17): 234.2
- persistent current (I40 ms/Ipeak) ([2]; individual cells): 0.0261 and 0.07967 and 0.01209 and 0.007119 and 0.06666 and 0.04746 and 0.006524 and 0.006085 and 0.07156 and 0.01737 and 0.02558 and -0.00907 and 0.002307 and 0.02027 (2×) and 0.01594 and 0.04935 and 0.06033 and 0.03164 and 0.000895 and 0.0334 and 0.008347 and 0.02877
- Δ persistent current (I40 ms/Ipeak; buffer cf. ExTxA) ([2]; mean): 0.0265 ± 0.0049 and 0.02645
- persistent current (I40 ms/Ipeak) [3]: -0.07037 and 0.003531 and 0.01691 and 0.001263 and 0.000702 and -0.00068 and -0.03041 and 0.01768
- ExTxA-induced persistent current (I40ms/Ipeak; nA) in DRG neurons [4]: 0.573 ± 0.086
- ExTxA-induced DRG Ca2+ responses ([5]; ExTxA 10 nM, wt, Fluo-4, >1.5-fold increase, mean ± SEM, n = 10 wells): 53.20 ± 1.789 % neurons activated
- calcium imaging response (Fig. 3f) ([5]; WT, individual values, one line each (n = 10)): 51.5152 and 56.8182 and 58.0645 and 43.75 and 44.8276 and 50.7042 and 59.292 and 51.8519
- calcium imaging response (Fig. 3f), Mean ([5]; WT, mean, number of values 10, Std. Deviation 5.657, SEM 1.789): 53.2
- calcium imaging response (Fig. 3f), Median ([5]; WT, median, number of values 10): 53.9
- ExTxA-induced DRG Ca2+ responses ([6]; ExTxA 10 nM, Tmem233Cre KO, Fluo-4, >1.5-fold increase, mean ± SEM, n = 7 wells): 22.33 ± 1.942 % neurons activated
- calcium imaging response (Fig. 3f) ([6]; KO, individual values, one line each (n = 7)): 24.6269 and 21.831 and 19.2118 and 28.0374 and 12.6582 and 26.1905
- calcium imaging response (Fig. 3f), Mean ([6]; KO, mean, number of values 7, Std. Deviation 5.137, SEM 1.942): 22.33
- calcium imaging response (Fig. 3f), Median ([6]; KO, median, number of values 7): 23.77
- Ramp current (0.2 mV/s) [7]: -1.952 ± 0.950 nA
- Ramp current ([7]; NaV1.7-TMEM233 + ExTxA (100 nM), individual cells): -2.267 and -0.5155 and -0.3095 and -7.0521 and -0.7027 and -0.3607 and -2.095 and -0.6283
- currents induced by slow voltage-ramps ([7]; extracellular ExTxA): an increase of currents induced by slow voltage-ramps
- Xenopus oocyte persistent current (I40 ms/Ipeak) [8]: 0.727 ± 0.020
- Nav:TMEM, 1:1 molar, mean (persistent current) ([8]; Supplementary Fig 1f, 1 uM, toxin not named, mean of n = 6, Control mean 0.0806, n = 6): 0.727
- Nav:TMEM, 1:1 molar, individual values (persistent current) ([8]; Supplementary Fig 1f, 1 uM, toxin not named, single replicates): 0.6869 and 0.7919 and 0.702 and 0.7846 and 0.7038 and 0.6927
- Nav:TMEM, 1:1 molar, difference between means (1 uM - Control) ± SEM ([8]; Supplementary Fig 1f, unpaired t test P <0.0001, 95% CI 0.5949 to 0.6979): 0.6464 ± 0.0231
- toxicity to TE-671 cells, ExTxA alone ([9]; ExTxA 1 µM): did not cause visible toxicity
- toxicity to TE-671 cells, with veratridine and ouabain ([9]; ExTxA 1 µM + veratridine 5 µM + ouabain 20 nM): cell death
